Laboratory results: US11358952B2, “Substituted 4-aminoisoindoline-1,3-dione compounds, compositions thereof, and methods of treatment therewith” (Celgene Corporation, priority 2018, dated 2022)

What follows are compounds tested on SU-DHL-4 cell line (assay: SU-DHL-4 cell proliferation assay (Cell Titer-Glo viability)). Conditions: Homo sapiens; cell viability IC50 activity level, DLBCL cell line SU-DHL-4, 120 hours post-treatment; read-out: SU-DHL-4 Act.
Format: cell-based
In short: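 SU-DHL-4 cells (500/well, RPMI-1640 + 10% FBS) exposed to 20-point compound dilutions (0.5 nM–10 μM, 0.1% DMSO) for 120 h at 37°C, 5% CO2. Viability measured by Cell Titer-Glo luminescence at t0 and at 120 h. IC50 is the concentration giving 50% of DMSO control, from a four-parameter logistic fit.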
`CC(C)S(=O)(=O)N1CCN(Cc2ccc(CNc3cccc4c3C(=O)N(C3CCC(=O)NC3=O)C4=O)c(F)c2)CC1` (stereo not shown) [Cpd 175, 2-(2,6-dioxopiperidin-3-yl)-4-(2-fluoro-4-((4-(isopropylsulfonyl)piperazin-1-yl)methyl)benzylamino)isoindoline-1,3-dione] showed an IC50 of under 0.2 µM. Work on `O=C1CCC(N2C(=O)c3cccc(NCc4ccc(CN5CCC(O)(c6ccccn6)CC5)cc4)c3C2=O)C(=O)N1` (stereo not shown) [Cpd 111, 2-(2,6-dioxopiperidin-3-yl)-4-(4-((4-hydroxy-4-(pyridin-2-yl)piperidin-1-yl)methyl)benzylamino)isoindoline-1,3-dione] yielded an IC50 of under 0.2 µM. Work on `Cc1cc(CNc2cccc3c2C(=O)N(C2CCC(=O)NC2=O)C3=O)ccc1CN1CCC(C)(C)CC1` (stereo not shown) [Cpd 42, 4-(4-((4,4-dimethylpiperidin-1-yl)methyl)-3-methylbenzylamino)-2-(2,6-dioxopiperidin-3-yl)isoindoline-1,3-dione] yielded an IC50 of under 0.2 µM. Compound `O=C1CCC(N2C(=O)c3cccc(NCc4ccc(CN5CC6CC(c7ccc(F)cc7)CC6C5)cc4)c3C2=O)C(=O)N1` [Cpd 64, 2-(2,6-dioxopiperidin-3-yl)-4-(4-(((3aR,5r,6aS)-5-(4-fluorophenyl)hexahydrocyclopenta [c]pyrrol-2-(1H)-yl)methyl)benzylamino)isoindoline-1,3-dione] has an IC50 of 0.2 to 0.5 µM. `O=C1CCC(N2C(=O)c3cccc(NCc4ccc(CN5CCN(c6noc7ccccc67)CC5)cc4)c3C2=O)C(=O)N1` (stereo not shown) [Cpd 187, 4-(4-((4-(benzo[d]isoxazol-3-yl)piperazin-1-yl)methyl)benzylamino)-2-(2,6-dioxopiperidin-3-yl)isoindoline-1,3-dione] was tested, and the IC50 was 0.2 to 0.5 µM. In the case of `Cc1cc(CN2CC(c3ccc(C#N)cc3)C2)ccc1CNc1cccc2c1C(=O)N(C1CCC(=O)NC1=O)C2=O` (stereo not shown) [Cpd 105, 4-(1-(4-((2-(2,6-dioxopiperidin-3-yl)-1,3-dioxoisoindoliln-4-ylamino)methyl)-3-methylbenzyl)azetidin-3-yl)benzonitrile], the IC50 is reported as under 0.2 µM. In the case of `CCC1CCN(Cc2ccc(CNc3cccc4c3C(=O)N(C3CCC(=O)NC3=O)C4=O)cc2C)CC1` (stereo not shown) [Cpd 41, 2-(2,6-dioxopiperidin-3-yl)-4-(4-((4-ethylpiperidin-1-yl)methyl)-3-methylbenzylamino)isoindoline-1,3-dione], the IC50 is reported as under 0.2 µM. `O=C1CCC(N2C(=O)c3cccc(NCc4ccc(CN5CCC(N6CCCC6=O)CC5)cc4F)c3C2=O)C(=O)N1` (stereo not shown) [Cpd 170, 2-(2,6-dioxopiperidin-3-yl)-4-(2-fluoro-4-((4-(2-oxopyrrolidin-1-yl)piperidin-1-yl)methyl)benzylamino)isoindoline-1,3-dione] gave an IC50 of under 0.2 µM. In the case of `CC(C)(C)N1CCN(Cc2ccc(CNc3cccc4c3C(=O)N(C3CCC(=O)NC3=O)C4=O)cc2F)CC1` (stereo not shown) [Cpd 93, 4-(4-((4-tert-butylpiperazin-1-yl)methyl)-3-fluorobenzylamino)-2-(2,6-dioxopiperidin-3-yl)isoindoline-1,3-dione], the IC50 is reported as under 0.2 µM. With `Cc1cc(CNc2cccc3c2C(=O)N(C2CCC(=O)NC2=O)C3=O)ccc1CN1CCN(c2ccc(F)cc2F)CC1` (stereo not shown) [Cpd 50, 4-(4-((4-(2,4-difluorophenyl)piperazin-1-yl)methyl)-3-methylbenzylamino)-2-(2,6-dioxopiperidin-3-yl)isoindoline-1,3-dione] the IC50 was 0.2 to 0.5 µM. `O=C1CCC(N2C(=O)c3cccc(NCc4ccc(CN5CCC(N6CCOCC6)CC5)cc4)c3C2=O)C(=O)N1` (stereo not shown) [Cpd 210, 2-(2,6-dioxopiperidin-3-yl)-4-(4-((4-morpholinopiperidin-1-yl)methyl)benzylamino)isoindoline-1,3-dione] gave an IC50 of 0.2 to 0.5 µM. With `Cc1cc(CNc2cccc3c2C(=O)N(C2CCC(=O)NC2=O)C3=O)ccc1CN1CCN(C(C)(C)C)CC1` (stereo not shown) [Cpd 68, 4-(4-((4-tert-butylpiperazin-1-yl)methyl)-3-methylbenzylamino)-2-(2,6-dioxopiperidin-3-yl)isoindoline-1,3-dione] the IC50 was under 0.2 µM. For `O=C1CCC(N2C(=O)c3cccc(NCc4ccc(CN5CC(c6cccc(F)c6)C5)cc4)c3C2=O)C(=O)N1` (stereo not shown) [Cpd 13, 2-(2,6-dioxopiperidin-3-yl)-4-(4-((3-(3-fluorophenyl)azetidin-1-yl)methyl)benzylamino)isoindoline-1,3-dione], the IC50 was 0.501 to 0.75 µM. With `Cc1nsc(N2CCN(Cc3ccc(CNc4cccc5c4C(=O)N(C4CCC(=O)NC4=O)C5=O)cc3)CC2)n1` (stereo not shown) [Cpd 194, 2-(2,6-dioxopiperidin-3-yl)-4-(4-((4-(3-methyl-1,2,4-thiadiazol-5-yl)piperazin-1-yl)methyl)benzylamino)isoindoline-1,3-dione] the IC50 was under 0.2 µM. For `O=C1CCC(N2C(=O)c3cccc(NCc4ccc(CN5CC6(CCC6)C5)cc4F)c3C2=O)C(=O)N1` (stereo not shown) [Cpd 137, 4-(4-(2-azaspiro[3.3]heptan-2-ylmethyl)-2-fluorobenzylamino)-2-(2,6-dioxopiperidin-3-yl)isoindoline-1,3-dione], the IC50 was under 0.2 µM. `O=C1CCC(N2C(=O)c3cccc(NCc4ccc(CN5CCN(c6ccc(Cl)cn6)CC5)cc4)c3C2=O)C(=O)N1` (stereo not shown) [Cpd 18, 4-(4-((4-(5-chloropyridin-2-yl)piperazin-1-yl)methyl)benzylamino)-2-(2,6-dioxopiperidin-3-yl)isoindoline-1,3-dione] gave an IC50 of 0.751 to 1 µM. With `C[C@@H]1COC[C@H](C)N1C1CN(Cc2ccc(CNc3cccc4c3C(=O)N(C3CCC(=O)NC3=O)C4=O)c(F)c2)C1` (stereo partly drawn) [Cpd 249, 4-(4-((3-((3S,5R)-3,5-dimethylmorpholino)azetidin-1-yl)methyl)-2-fluorobenzylamino)-2-(2,6-dioxopiperidin-3-yl)isoindoline-1,3-dione] the IC50 was under 0.2 µM. Compound `NC(=O)c1ccc(N2CCN(Cc3ccc(CNc4cccc5c4C(=O)N([C@@H]4CCC(=O)NC4=O)C5=O)cc3)CC2)nc1` [Cpd 204, (R)-6-(4-(4-((2-(2,6-dioxopiperidin-3-yl)-1,3-dioxoisoindolin-4-ylamino)methyl)benzyl)piperazin-1-yl)nicotinamide] has an IC50 of under 0.2 µM. In the case of `Cc1cc(CNc2cccc3c2C(=O)N(C2CCC(=O)NC2=O)C3=O)ccc1CN1CCN(C2CCC2)CC1` (stereo not shown) [Cpd 70, 4-(4-((4-cyclobutylpiperazin-1-yl)methyl)-3-methylbenzylamino)-2-(2,6-dioxopiperidin-3-yl)isoindoline-1,3-dione], the IC50 is reported as under 0.2 µM. With `NC(=O)c1ccc(N2CCN(Cc3ccc(CNc4cccc5c4C(=O)N(C4CCC(=O)NC4=O)C5=O)c(F)c3)CC2)nc1` (stereo not shown) [Cpd 149, 6-(4-(4-((2-(2,6-dioxopiperidin-3-yl)-1,3-dioxoisoindolin-4-ylamino)methyl)-3-fluorobenzyl)piperazin-1-yl)nicotinamide] the IC50 was under 0.2 µM. `Cc1cc(CNc2cccc3c2C(=O)N(C2CCC(=O)NC2=O)C3=O)ccc1CN1CCC2(CCC2)C1` (stereo not shown) [Cpd 76, 4-(4-(6-azaspiro[3.4]octan-6-ylmethyl)-3-methylbenzylamino)-2-(2,6-dioxopiperidin-3-yl)isoindoline-1,3-dione] gave an IC50 of 0.2 to 0.5 µM. In the case of `O=C1CCC(N2C(=O)c3cccc(NCc4ccc(CN5CCC6(CCCO6)CC5)c(F)c4)c3C2=O)C(=O)N1` (stereo not shown) [Cpd 147, 4-(4-(1-oxa-8-azaspiro[4.5]decan-8-ylmethyl)-3-fluorobenzylamino)-2-(2,6-dioxopiperidin-3-yl)isoindoline-1,3-dione], the IC50 is reported as 0.2 to 0.5 µM. Compound `O=C1CCC(N2C(=O)c3cccc(NCc4ccc(CN5CCOCC5)cc4F)c3C2=O)C(=O)N1` (stereo not shown) [Cpd 154, 2-(2,6-dioxopiperidin-3-yl)-4-(2-fluoro-4-(morpholinomethyl)benzylamino) isoindoline-1,3-dione] has an IC50 of 0.2 to 0.5 µM. For `CC(C)(C)C1CCN(Cc2ccc(CNc3cccc4c3C(=O)N(C3CCC(=O)NC3=O)C4=O)c(F)c2)CC1` (stereo not shown) [Cpd 94, 4-(4-((4-tert-butylpiperidin-1-yl)methyl)-2-fluorobenzylamino)-2-(2,6-dioxopiperidin-3-yl)isoindoline-1,3-dione], the IC50 was under 0.2 µM. `NC(=O)c1cc(N2CCN(Cc3ccc(CNc4cccc5c4C(=O)N(C4CCC(=O)NC4=O)C5=O)cc3)CC2)ccn1` (stereo not shown) [Cpd 189, 4-(4-(4-((2-(2,6-dioxopiperidin-3-yl)-1,3-dioxoisoindolin-4-ylamino)methyl)benzyl)piperazin-1-yl)picolinamide] gave an IC50 of 0.2 to 0.5 µM. `CCCOC1CCN(Cc2ccc(CNc3cccc4c3C(=O)N(C3CCC(=O)NC3=O)C4=O)cc2)CC1` (stereo not shown) [Cpd 124, 2-(2,6-dioxopiperidin-3-yl)-4-(4-((4-propoxypiperidin-1-yl)methyl)benzylamino)isoindoline-1,3-dione] showed an IC50 of 0.501 to 0.75 µM. For `Cc1cc(CNc2cccc3c2C(=O)N(C2CCC(=O)NC2=O)C3=O)ccc1CN1CC2(CCCCC2)C1` (stereo not shown) [Cpd 75, 4-(4-(2-azaspiro[3.5]nonan-2-ylmethyl)-3-methylbenzylamino)-2-(2,6-dioxopiperidin-3-yl)isoindoline-1,3-dione], the IC50 was under 0.2 µM. `Cc1cncc(N2CCN(Cc3ccc(CNc4cccc5c4C(=O)N(C4CCC(=O)NC4=O)C5=O)cc3)CC2)n1` (stereo not shown) [Cpd 186, 2-(2,6-dioxopiperidin-3-yl)-4-(4-((4-(6-methylpyrazin-2-yl)piperazin-1-yl)methyl)benzylamino)isoindoline-1,3-dione] showed an IC50 of 0.751 to 1 µM. Compound `N#Cc1ccc(N2CCN(Cc3ccc(CNc4cccc5c4C(=O)N(C4CCC(=O)NC4=O)C5=O)cc3)CC2)nc1` (stereo not shown) [Cpd 29, 6-(4-(4-((2-(2,6-dioxopiperidin-3-yl)-1,3-dioxoisoindolin-4-ylamino)methyl)benzyl)piperazin-1-yl)nicotinonitrile] has an IC50 of 0.2 to 0.5 µM. For `Cc1cc(CNc2cccc3c2C(=O)N(C2CCC(=O)NC2=O)C3=O)ccc1CN1CCN(c2ccc(C#N)cc2Cl)CC1` (stereo not shown) [Cpd 61, 3-chloro-4-(4-(4-((2-(2,6-dioxopiperidin-3-yl)-1,3-dioxoisoindolin-4-ylamino)methyl)-2-methylbenzyl)piperazin-1-yl)benzonitrile], the IC50 was under 0.2 µM. With `CC1(C)COCCN1C1CN(Cc2ccc(CNc3cccc4c3C(=O)N(C3CCC(=O)NC3=O)C4=O)cc2)C1` (stereo not shown) [Cpd 239, 4-(4-((3-(3,3-dimethylmorpholino)azetidin-1-yl)methyl)benzylamino)-2-(2,6-dioxopiperidin-3-yl)isoindoline-1,3-dione] the IC50 was 0.501 to 0.75 µM.
